This is an account of results in patent publication EP0408760B1, “NEW HYDROXYLAMINE DERIVATIVE” (FUJISAWA PHARMACEUTICAL CO., LTD., priority 1988, dated 1990).

This assay concerns D-Galactosamine-induced hepatitis in rats. Description: Effect of compound on D-Galactosamine-induced hepatitis in rats (serum GOT and GPT). Particulars: orally 3 hour before and after D-Galactosamine, blood 24 hours later, male Wistar rats. The format is in vivo. As to the method:
Method : Effect of compound on D-Galactosamine-induced hepatitis in rats
Acute hepatitis was induced in male Wistar rats at 6 weeks of age by the intraperitoneal injection of 80 mg/ml D-Galactosamine in saline at the volume of 5 ml/kg. Blood samples were taken in rats under ether anaesthesia 24 hours later.
After centrifugation for the separation of sera, the levels of GOT and GPT were determined spectrophotometrically according to Biochemical Analyzer TBA-20R (Toshiba).
Compound was dissolved in polyethylene glycol 400, and administered orally 3 hour before and after the injection of D-Galactosamine.
The levels of serum GOT and GPT in group of animals were measured as described above, and the mean value of each group calculated, including normal rats without D-Galactosamine injection.
The effect of compound was expressed as the percentage Inhibition at serum GOT and GPT, taking activity of control serum as 0% Inhibtion and that of normal serum as 100% Inhibition.

As to `CCNC(=O)N(O)CC1=Cc2cccc(Oc3ccccc3)c2CC1` [Test Compound (f), N-[(3,4-Dihydro-5-phenoxy-2-naphthyl)methyl]-N-hydroxy-N'-ethylurea], the “Inhibition (%) serum GOT” value turned out to be 38% (dose 1 mg/kg), 40% (dose 10 mg/kg) and 67% (dose 32 mg/kg). For the same compound, the “Inhibition (%) serum GPT” value by setting is: (dose 1 mg/kg) 42%; (dose 10 mg/kg) 37%; (dose 32 mg/kg) 64%.
